Structures are written as SMILES.

Here are results for 26 compounds from ChEMBL document CHEMBL1128021, “Potent and selective inhibitors of gelatinase-a 1. hydroxamic acid derivatives” (Bioorg Med Chem Lett, 1994).

Assay [1] deals with T1, Interstitial collagenase (Homo sapiens, UniProt P03956).
T1 sequence (P03956 whole entry): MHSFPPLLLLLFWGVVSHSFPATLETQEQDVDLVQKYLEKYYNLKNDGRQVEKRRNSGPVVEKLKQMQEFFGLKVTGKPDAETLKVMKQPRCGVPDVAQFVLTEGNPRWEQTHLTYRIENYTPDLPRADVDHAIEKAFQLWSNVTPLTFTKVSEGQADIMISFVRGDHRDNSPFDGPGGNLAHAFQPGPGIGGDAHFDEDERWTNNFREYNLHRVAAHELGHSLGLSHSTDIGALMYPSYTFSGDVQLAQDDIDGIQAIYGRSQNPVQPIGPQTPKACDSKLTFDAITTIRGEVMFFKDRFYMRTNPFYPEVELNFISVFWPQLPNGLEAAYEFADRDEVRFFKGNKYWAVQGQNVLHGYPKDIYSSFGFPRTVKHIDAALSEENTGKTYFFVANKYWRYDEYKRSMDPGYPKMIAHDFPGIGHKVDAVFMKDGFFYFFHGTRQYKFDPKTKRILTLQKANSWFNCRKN
Description: Inhibition of the collagenase enzyme.

Assay [2] addresses 72 kDa type IV collagenase (Homo sapiens, UniProt P08253). Description: Inhibition of the gelatinase-A enzyme.
The target of assay [3] is Stromelysin-1 (Homo sapiens, UniProt P08254). Description: Inhibition of the stromelysin enzyme.
Chain of Stromelysin-1 (P08254 whole entry): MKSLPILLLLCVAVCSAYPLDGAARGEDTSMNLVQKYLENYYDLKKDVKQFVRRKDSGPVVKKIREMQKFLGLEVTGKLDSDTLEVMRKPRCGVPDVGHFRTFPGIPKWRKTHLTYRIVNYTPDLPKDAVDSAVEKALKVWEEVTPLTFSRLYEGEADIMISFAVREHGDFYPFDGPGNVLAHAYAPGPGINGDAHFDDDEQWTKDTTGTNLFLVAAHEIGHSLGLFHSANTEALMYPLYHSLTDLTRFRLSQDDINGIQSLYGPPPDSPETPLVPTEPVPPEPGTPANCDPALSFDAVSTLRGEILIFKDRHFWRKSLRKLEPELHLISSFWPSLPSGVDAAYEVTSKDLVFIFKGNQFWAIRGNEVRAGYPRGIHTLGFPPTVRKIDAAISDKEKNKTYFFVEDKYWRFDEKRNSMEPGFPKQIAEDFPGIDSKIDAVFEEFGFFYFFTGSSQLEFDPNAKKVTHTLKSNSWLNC

Chain of 72 kDa type IV collagenase (P08253 whole entry): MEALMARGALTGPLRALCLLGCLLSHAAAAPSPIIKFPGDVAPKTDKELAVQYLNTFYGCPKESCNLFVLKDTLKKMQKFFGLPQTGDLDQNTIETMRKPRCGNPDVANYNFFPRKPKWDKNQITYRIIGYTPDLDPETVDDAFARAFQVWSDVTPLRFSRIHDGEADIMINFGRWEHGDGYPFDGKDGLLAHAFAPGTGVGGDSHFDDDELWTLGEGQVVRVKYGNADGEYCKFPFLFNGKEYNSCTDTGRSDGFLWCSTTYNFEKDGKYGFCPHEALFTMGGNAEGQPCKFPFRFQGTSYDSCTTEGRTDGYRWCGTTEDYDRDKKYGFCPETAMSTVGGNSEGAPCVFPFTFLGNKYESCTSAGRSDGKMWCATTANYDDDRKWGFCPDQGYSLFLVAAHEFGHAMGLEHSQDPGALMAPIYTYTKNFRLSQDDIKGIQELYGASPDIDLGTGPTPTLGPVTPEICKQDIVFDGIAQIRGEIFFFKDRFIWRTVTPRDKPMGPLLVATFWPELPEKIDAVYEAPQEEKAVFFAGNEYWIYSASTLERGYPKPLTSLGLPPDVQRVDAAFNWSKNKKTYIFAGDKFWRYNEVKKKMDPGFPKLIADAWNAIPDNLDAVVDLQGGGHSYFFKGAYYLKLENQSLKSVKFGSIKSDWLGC

What is called Ki is the equilibrium dissociation constant of an inhibitor or competing ligand from its target. The low end stands for tighter binding, the high end for weaker binding. For `O=C(C[C@@H](CCCc1ccc(F)cc1)C(=O)N[C@@H](CC1CCCCC1)C(=O)NCCc1ccccc1)NO`, the Ki was 296 nM in assay [1], 0.06 nM in assay [2] and 13.5 nM in assay [3].
As for `COc1ccc(CCC[C@H](CC(=O)NO)C(=O)N[C@@H](CC2CCCCC2)C(=O)NCCc2ccccc2)cc1`, the Ki worked out at 1530 nM in assay [1], 0.06 nM in assay [2] and 4.16 nM in assay [3].
Regarding `O=C(C[C@@H](CCCc1ccc(Cl)cc1)C(=O)N[C@@H](CC1CCCCC1)C(=O)NCCc1ccccc1)NO`, the inhibition constant Ki stood at 0.03 nM in assay [2] and 7.31 nM in assay [3].
Regarding `Cc1ccc(CCC[C@H](CC(=O)NO)C(=O)N[C@@H](CC2CCCCC2)C(=O)NCCc2ccccc2)cc1`, the Ki in assay [1] came out at 921 nM; in assay [2] it was 0.08 nM; in assay [3], 8.24 nM.
With `CN(C)CCCCNC(=O)[C@H](CC1CCCCC1)NC(=O)[C@H](CCCc1ccc(Cl)cc1)CC(=O)NO`, the inhibition constant Ki in assay [1] came to 1050 nM; in assay [2], 0.05 nM; in assay [3] it was 22.2 nM.
For the compound `O=C(C[C@@H](Cc1ccccc1)C(=O)N[C@@H](CC1CCCCC1)C(=O)NCCc1ccccc1)NO`, the inhibition constant (Ki) in assay [1] is more than 10000 nM; in assay [2], 1900 nM; in assay [3], more than 10000 nM.
In assay [2], `O=C(C[C@@H](CCCC1CCCCC1)C(=O)N[C@@H](CC1CCCCC1)C(=O)NCCc1ccccc1)NO` displayed a Ki of 6.9 nM.
As to `Cc1ccc(CCC[C@H](CC(=O)NO)C(=O)N[C@@H](CC2CCCCC2)C(=O)NCCN2CCOCC2)cc1`, the Ki in assay [1] turned out to be 455 nM; in assay [2], 0.01 nM; in assay [3] it was 6.26 nM.
As to `CCc1ccc(CCC[C@H](CC(=O)NO)C(=O)N[C@@H](CC2CCCCC2)C(=O)NCCc2ccccc2)cc1`, the inhibition constant Ki in assay [1] came out at 5120 nM; in assay [2], 0.1 nM; in assay [3] it was 5.44 nM.
Take `O=C(C[C@@H](CCCCc1ccccc1)C(=O)N[C@@H](CC1CCCCC1)C(=O)NCCc1ccccc1)NO`: the Ki in assay [1] was 2500 nM; in assay [2], 0.254 nM; in assay [3], 177 nM.
For `O=C(C[C@@H](CCCc1ccccc1)C(=O)N[C@@H](CC1CCCCC1)C(=O)NCCc1ccccc1)NO`, in that order: 203 nM, 0.062 nM and 8.3 nM.
Consider `O=C(C[C@@H](CCCc1ccc(C(F)(F)F)cc1)C(=O)N[C@@H](CC1CCCCC1)C(=O)NCCc1ccccc1)NO`, for which the Ki stood at 5000 nM in assay [1], 0.3 nM in assay [2] and 90.3 nM in assay [3].
For the compound `CC(C)C[C@H](CC(=O)NO)C(=O)N[C@@H](CC1CCCCC1)C(=O)NCCc1ccccc1`, the inhibition constant Ki is 7.8 nM in assay [1], 0.33 nM in assay [2] and 25.3 nM in assay [3].
For `O=C(C[C@@H](CCc1ccccc1)C(=O)N[C@@H](CC1CCCCC1)C(=O)NCCc1ccccc1)NO`, the inhibition constant Ki was determined as 618 nM in assay [1], 2.24 nM in assay [2] and 77 nM in assay [3].
For `O=C(C[C@@H](CCCc1ccccc1)C(=O)N[C@@H](CC1CCCCC1)C(=O)NCCc1ccc(S(=O)(=O)O)cc1)NO`, in that order: 942 nM, 0.59 nM and 8.15 nM.
With `O=C(C[C@@H](CCCc1ccc(Cl)cc1)C(=O)N[C@@H](CC1CCCCC1)C(=O)NCCNS(=O)(=O)N1CCOCC1)NO`, the affinity in assay [2] corresponds to a Ki of 0.01 nM.
In the case of `Cc1ccc(CCC[C@H](CC(=O)NO)C(=O)N[C@@H](CC2CCCCC2)C(=O)NCCc2ccc(S(N)(=O)=O)cc2)cc1`, the values for the inhibitory constant (Ki) in assay [1], in assay [2] and in assay [3] were 329 nM, 0.01 nM and 2.98 nM, respectively.
As for `NS(=O)(=O)c1ccc(CCNC(=O)[C@H](CC2CCCCC2)NC(=O)[C@H](CCCc2ccc(Cl)cc2)CC(=O)NO)cc1`, the Ki in assay [1] was 382 nM; in assay [2], 0.03 nM; in assay [3] it was 6.35 nM.
On to `COC(=O)CCNC(=O)[C@H](CC1CCCCC1)NC(=O)[C@H](CCCc1ccc(Cl)cc1)CC(=O)NO`, for which the inhibitory constant (Ki) in assay [1] was determined as 135 nM; in assay [2] it was 0.01 nM; in assay [3], 0.96 nM.
With `O=C(C[C@@H](CCCc1ccc(Cl)cc1)C(=O)N[C@@H](CC1CCCCC1)C(=O)NCCC(=O)N1CCOCC1)NO`, the Ki in assay [1] was 319 nM; in assay [2], 0.02 nM; in assay [3], 1.38 nM.
Turning to `O=C(O)CCNC(=O)[C@H](CC1CCCCC1)NC(=O)[C@H](CCCc1ccc(Cl)cc1)CC(=O)NO`, the values for the inhibition constant (Ki) in assay [1], in assay [2] and in assay [3] were 193 nM, 0.01 nM and 0.8 nM, respectively.
In assay [2], `Cc1ccc(CCC[C@H](CC(=O)NO)C(=O)N[C@@H](CC2CCCCC2)C(=O)NCCNS(=O)(=O)N2CCOCC2)cc1` came in with a Ki of 0.01 nM.
For `O=C(C[C@@H](CCCc1ccc(Cl)cc1)C(=O)N[C@@H](CC1CCCCC1)C(=O)NCCCCN1CCOCC1)NO`, the inhibition constant Ki came to 313 nM in assay [1], 0.03 nM in assay [2] and 2.39 nM in assay [3].
For `Cc1ccc(CCC[C@H](CC(=O)NO)C(=O)N[C@@H](CC2CCCCC2)C(=O)NCCCCN(C)C)cc1` the same measures were 313 nM, 0.02 nM and 5.87 nM.
For `CC(C)C[C@H](CC(=O)NO)C(=O)N[C@@H](CC(C)C)C(=O)N[C@@H](Cc1ccccc1)C(N)=O`, the Ki in assay [1] was determined as 303 nM; in assay [3], 127 nM.
As to `Cc1ccc(CCC[C@H](CC(=O)NO)C(=O)N[C@@H](CC2CCCCC2)C(=O)NCCCCN2CCOCC2)cc1`, the Ki in assay [1] was determined as 642 nM; in assay [2], 0.02 nM; in assay [3], 2.61 nM.
